{"source": "patent US4383114A", "about": "“Adenosine deaminase resistant antiviral purine arabinonucleosides” (priority 1981, dated 1983)", "key": {"[1]": {"test": "toxicity in uninfected (toxicity control) or treated mice", "format": "in vivo, Random-bred Swiss mice, female", "details": "for Avg. Body Wt. on Day 0 / Avg. Body Wt. on Day 7 / Avg. Body Wt. on Day 14 / Avg. Body Wt. on Day 21 / Mortality: No. Dead/Total No. of Mice / mortality at 504 h: uninfected toxicity controls; for mortality at 504 h: mouse, in vivo, ip", "experimental": "River Breeding Laboratories, Inc.\ncellulose (HPC) at four different\ncentrations so that a single daily\nvolume of 0.01 ml/gm of body\nThe drugs were administered once\nfor 7 days beginning 4 hours after […]"}, "[2]": {"test_system": "calf intestinal mucosa adenosine deaminase (Sigma Chemical Company)", "test": "adenosine deaminase activity on Ara-A, Cyclaradine and Aristeromycin (Example 14)", "format": "in vitro ADME", "details": "1×10^-4 M, pH 7.5, 17.75 units/ml enzyme", "description": "The deaminated products were further identified by thin-layer chromatography using authentic samples for reference."}, "[3]": {"test_system": "adenosine deaminase", "details": "background statement; cited from earlier work"}, "[4]": {"test_system": "calf intestinal adenosine deaminase (type III, Sigma)", "test": "resistance to deamination by adenosine deaminase (Example 11)", "details": "for deamination by adenosine deaminase: conditions under which ara-A is completely deaminated"}, "[5]": {"test": "cytotoxicity, growing P-388 mouse lymphoid leukemia cells in presence of drug", "details": "p-388 cells"}, "[6]": {"test_system": "adenosine deaminase", "test": "inhibition of enzymatic deamination of ara-A or adenosine", "format": "biochemical, calf", "details": "substrates ara-A or adenosine"}, "[7]": {"test_system": "herpes simplex virus (HSV) type 1 (strain HF)", "format": "cell-based, herpes simplex virus type 1"}, "[8]": {"test_system": "vaccinia virus (VV) (Strain Lederle Chorioallantoic)", "test": "microbe, parasite or virus in culture", "format": "cell-based"}, "[9]": {"test_system": "HSV and VV", "test": "organism not typed", "format": "cell-based"}}, "note": "“And” between values parts separate entries of the source, which are not always exact repeats. Identical values can stand only once.", "data": [{"smiles": "Nc1ncnc2c1ncn2[C@@H]1O[C@H](CO)[C@@H](O)[C@@H]1O", "note": "[ara-A, reference compound]", "values": [{"measurement": "mortality and weight loss", "setting": "[1]; 755.3 mg/kg/day, qd 1-7", "result": "Significant mortality and severe weight loss"}, {"measurement": "Avg. Body Wt. on Day 0", "setting": "[1]; Ara-A 125 mg/kg/day", "result": 21.7, "unit": "gm"}, {"measurement": "Avg. Body Wt. on Day 7", "setting": "[1]; Ara-A 125 mg/kg/day", "result": 25.4, "unit": "gm"}, {"measurement": "Avg. Body Wt. on Day 14", "setting": "[1]; Ara-A 125 mg/kg/day", "result": 27.3, "unit": "gm"}, {"measurement": "Avg. Body Wt. on Day 21", "setting": "[1]; Ara-A 125 mg/kg/day", "result": 29.5, "unit": "gm"}, {"measurement": "Mortality: No. Dead/Total No. of Mice", "setting": "[1]; Ara-A 125 mg/kg/day", "result": "0/10"}, {"measurement": "Avg. Body Wt. on Day 0", "setting": "[1]; Ara-A 250 mg/kg/day", "result": 21.7, "unit": "gm"}, {"measurement": "Avg. Body Wt. on Day 7", "setting": "[1]; Ara-A 250 mg/kg/day", "result": 25.1, "unit": "gm"}, {"measurement": "Avg. Body Wt. on Day 14", "setting": "[1]; Ara-A 250 mg/kg/day", "result": 26.6, "unit": "gm"}, {"measurement": "Avg. Body Wt. on Day 21", "setting": "[1]; Ara-A 250 mg/kg/day", "result": 29.1, "unit": "gm"}, {"measurement": "Mortality: No. Dead/Total No. of Mice", "setting": "[1]; Ara-A 250 mg/kg/day", "result": "0/10"}, {"measurement": "toxicity of dose levels", "setting": "[1]; ara-A 125 to 250 mg/kg/day, qd 1-7", "result": "non-toxic"}, {"measurement": "mortality at 504 h", "setting": "[1]; Ara-A 125 mg/kg/day", "result": 0, "unit": "%"}, {"measurement": "mortality at 504 h", "setting": "[1]; Ara-A 250 mg/kg/day", "result": 0, "unit": "%"}, {"measurement": "approx. LD10", "setting": "[1]; qd 1-7 schedule, mice", "result": "~600", "unit": "mg/kg/day"}, {"measurement": "conversion to deaminated product", "setting": "[2]; 2 hours, 25° C", "result": "complete conversion"}, {"measurement": "deamination by adenosine deaminase", "setting": "[3]", "result": "rapidly deaminated"}, {"measurement": "deamination rate", "setting": "[4]", "result": "1 μmole/min/unit of enzyme"}, {"measurement": "deamination by adenosine deaminase", "setting": "[4]", "result": "completely deaminated"}, {"measurement": "CC50", "setting": "[5]", "result": 10, "unit": "µM"}]}, {"smiles": "Nc1ncnc2c1ncn2[C@@H]1C[C@H](CO)[C@@H](O)[C@H]1O", "note": "[Aristeromycin]", "values": [{"measurement": "conversion to deaminated product", "setting": "[2]; 2 hours, 25° C", "result": "complete conversion"}]}, {"smiles": "Nc1ncnc2c1ncn2[C@@H]1C[C@H](CO)[C@@H](O)[C@@H]1O", "note": "(relative stereo) [cyclaradine, 9-[α-(2α,3β-Dihydroxy-4α(hydroxymethyl)cyclopentyl)]adenine]", "values": [{"measurement": "inhibition of enzymatic deamination", "setting": "[6]", "result": "did not inhibit"}, {"measurement": "Virus Rating (VR)", "setting": "[7]", "result": "2.2 and 3.5"}, {"measurement": "EC50", "setting": "[8]; Orthopoxvirus vaccinia, HEp-2, read-out: MED50 (minimum drug dose required for 50% inhibition of virus-induced cpe)", "result": 9, "unit": "µg/mL"}, {"measurement": "Virus Rating (VR)", "setting": "[8]; vaccinia virus, HEp-2 cells, VR ≥ 1.0 definite, 0.5-0.9 marginal to moderate, < 0.5 no apparent antiviral activity", "result": "1.5 and 1.7"}, {"measurement": "weight loss or apparent toxicity", "setting": "[1]; 750 mg/kg/day (equimolar to ara-A 755.3 mg/kg/day)", "result": "no significant weight loss or apparent toxicity"}, {"measurement": "lethal toxicity for uninfected animals", "setting": "[1]; 900 mg/kg/day, qd 1-7, uninfected", "result": "apparently not lethally toxic"}, {"measurement": "Avg. Body Wt. on Day 0", "setting": "[1]; C-Ara-A 112.5 mg/kg/day", "result": 21.8, "unit": "gm"}, {"measurement": "Avg. Body Wt. on Day 7", "setting": "[1]; C-Ara-A 112.5 mg/kg/day", "result": 24.5, "unit": "gm"}, {"measurement": "Avg. Body Wt. on Day 14", "setting": "[1]; C-Ara-A 112.5 mg/kg/day", "result": 26.5, "unit": "gm"}, {"measurement": "Avg. Body Wt. on Day 21", "setting": "[1]; C-Ara-A 112.5 mg/kg/day", "result": 28.5, "unit": "gm"}, {"measurement": "Mortality: No. Dead/Total No. of Mice", "setting": "[1]; C-Ara-A 112.5 mg/kg/day", "result": "0/5"}, {"measurement": "Avg. Body Wt. on Day 0", "setting": "[1]; C-Ara-A 225 mg/kg/day", "result": 21.8, "unit": "gm"}, {"measurement": "Avg. Body Wt. on Day 7", "setting": "[1]; C-Ara-A 225 mg/kg/day", "result": 24.4, "unit": "gm"}, {"measurement": "Avg. Body Wt. on Day 14", "setting": "[1]; C-Ara-A 225 mg/kg/day", "result": 26.8, "unit": "gm"}, {"measurement": "Avg. Body Wt. on Day 21", "setting": "[1]; C-Ara-A 225 mg/kg/day", "result": 29.3, "unit": "gm"}, {"measurement": "Mortality: No. Dead/Total No. of Mice", "setting": "[1]; C-Ara-A 225 mg/kg/day", "result": "0/5"}, {"measurement": "Avg. Body Wt. on Day 0", "setting": "[1]; C-Ara-A 450 mg/kg/day", "result": 21.6, "unit": "gm"}, {"measurement": "Avg. Body Wt. on Day 7", "setting": "[1]; C-Ara-A 450 mg/kg/day", "result": 22.6, "unit": "gm"}, {"measurement": "Avg. Body Wt. on Day 14", "setting": "[1]; C-Ara-A 450 mg/kg/day", "result": 25.9, "unit": "gm"}, {"measurement": "Avg. Body Wt. on Day 21", "setting": "[1]; C-Ara-A 450 mg/kg/day", "result": 28.3, "unit": "gm"}, {"measurement": "Mortality: No. Dead/Total No. of Mice", "setting": "[1]; C-Ara-A 450 mg/kg/day", "result": "0/5"}, {"measurement": "Avg. Body Wt. on Day 0", "setting": "[1]; C-Ara-A 900 mg/kg/day", "result": 21.8, "unit": "gm"}, {"measurement": "Avg. Body Wt. on Day 7", "setting": "[1]; C-Ara-A 900 mg/kg/day", "result": 22.5, "unit": "gm"}, {"measurement": "Avg. Body Wt. on Day 14", "setting": "[1]; C-Ara-A 900 mg/kg/day", "result": 25.3, "unit": "gm"}, {"measurement": "Avg. Body Wt. on Day 21", "setting": "[1]; C-Ara-A 900 mg/kg/day", "result": 28, "unit": "gm"}, {"measurement": "Mortality: No. Dead/Total No. of Mice", "setting": "[1]; C-Ara-A 900 mg/kg/day", "result": "0/5"}, {"measurement": "toxicity of dose levels", "setting": "[1]; cyclaradine 112.5 to 450 mg/kg/day, qd 1-7", "result": "non-toxic"}, {"measurement": "tolerability compared with ara-A", "setting": "[1]; higher dose levels, mice", "result": "obviously better tolerated than ara-A"}, {"measurement": "mortality at 504 h", "setting": "[1]; C-Ara-A 112.5 mg/kg/day", "result": 0, "unit": "%"}, {"measurement": "mortality at 504 h", "setting": "[1]; C-Ara-A 225 mg/kg/day", "result": 0, "unit": "%"}, {"measurement": "mortality at 504 h", "setting": "[1]; C-Ara-A 450 mg/kg/day", "result": 0, "unit": "%"}, {"measurement": "mortality at 504 h", "setting": "[1]; C-Ara-A 900 mg/kg/day", "result": 0, "unit": "%"}, {"measurement": "conversion to deaminated product", "setting": "[2]; overnight incubation", "result": "no conversion to deaminated product was detected"}, {"measurement": "antiviral activity against HSV and VV", "setting": "[9]", "result": "highly significant antiviral activity"}, {"measurement": "EC50", "setting": "[9]; read-out: approximate MED50", "result": "~9", "unit": "µg/mL"}, {"measurement": "deamination by adenosine deaminase", "setting": "[4]", "result": "no detectable deamination"}, {"measurement": "CC50", "setting": "[5]", "result": 10, "unit": "µM"}]}]}
